Structures are written as SMILES.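 Five compound concentrations were applied to cells in 96-well plates for 48 hours; endpoints were derived by simple linear interpolation of the resulting dose-response curve. GI50: concentration for 50% inhibition of growth. TGI: concentration producing complete growth inhibition.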

What all share (assay): NCI-60 cell line screen, 48 h
Experiment [1] relates to A549 NSCLC.
In experiment [2] the test system is ACHN renal.
Experiment [3] deals with CAKI-1 renal.
Experiment [4] concerns HCT-116 colon.
In experiment [5] the test system is HL-60(TB) leukemia.
Experiment [6] relates to MOLT-4 leukemia.
Experiment [7] relates to NCI-H226 lung.
In experiment [8] the test system is OVCAR-3 ovarian.
For experiment [9], the system named is TK-10 renal.

For `O=C1CCCC(=O)N1CCc1c[nH]c2ccccc12`, the TGI in experiment [1], in experiment [2], in experiment [3], in [4], in experiment [5] and in experiment [6] was over 100 µM in each case. In addition, the TGI in [7], in experiment [8] and in [9] was over 100 µM each time.

With `Cc1ccc([N+](=O)[O-])cc1NC(=O)c1cccc([N+](=O)[O-])c1O`, the TGI in experiment [1] was over 100 µM; in experiment [2], 95.9 µM; in experiment [3], 89.7 µM; in experiment [5], 34.4 µM; in [6], 73 µM; in [7] it was 51.9 µM. For the same compound, the TGI in [8] is 64.6 µM; in experiment [9], 93.8 µM.

Take `Cc1cc(NS(=O)(=O)c2ccc(NC(=O)c3ccc(Cl)c4c(Nc5ccc(S(=O)(=O)N=C(N)N)cc5)c5ccccc5nc34)cc2)no1`: the TGI is over 100 µM in experiment [2]; over 100 µM in experiment [4]; 41.6 µM in [6]; 83.7 µM in [8]; over 100 µM in [9].

As to `O=C1C2C=CC(C2)C(c2ccc(O)cc2)N1O` (stereo not drawn), the TGI in experiment [1], in experiment [2], in [3], in experiment [4], in experiment [5] and in experiment [6] was over 100 µM throughout. The TGI in experiment [7], in experiment [8] and in experiment [9] was over 100 µM each time.

As for `COc1ccc(/C=C(\C#N)n2nnc3ccccc32)cc1`, the GI50 was 0.235 µM in experiment [1]; 0.434 µM in [2]; 0.0638 µM in [3]; 0.0955 µM in experiment [4]; 0.126 µM in experiment [5]; 0.542 µM in experiment [6]. Moreover, the results for the GI50 in experiment [7], in [8] and in [9] were 1.11 µM, 0.046 µM and 2.22 µM, respectively. Also, the TGI in experiment [1] was over 100 µM; in experiment [2] it was 17.2 µM; in experiment [3] it was over 84.6 µM; in experiment [4] it was 2.15 µM; in [6] it was over 44.9 µM; in [7] it was 21.2 µM. The compound also showed a TGI in experiment [9] of 58.6 µM.

Take `COC(=O)NN=C1C(C)(C)C(=O)C1(C)C`: the TGI in experiment [1], in experiment [2], in [4], in experiment [5], in experiment [6] and in [7] was over 100 µM throughout. For the same compound, the TGI in [8] and in [9] was over 100 µM each time.

With `COC(=O)[C@]12CC=C3O[C@@H]4OC5(CCCCC5)O[C@@H]4C3[C@@H]1C(=O)CCC2=O` (stereo partly drawn), the TGI in experiment [1], in [2], in [3], in experiment [4], in experiment [5] and in [6] was over 100 µM throughout. Also, the TGI in [7] and in experiment [8] was over 100 µM in each case.

As for `O=C(O)CCSC(=O)Nc1ccccc1F`, the TGI in [1], in experiment [2], in [3], in experiment [4], in experiment [5] and in experiment [6] was over 100 µM in each case. The TGI in experiment [7], in experiment [8] and in [9] was over 100 µM in each case.

In the case of `O=C(c1ccccc1)[C@@H]1C[C@H](Sc2ccccc2)c2cc(Cl)ccc2N1`, the TGI in [1] is over 100 µM; in experiment [2] it was over 100 µM; in experiment [3] it was over 100 µM; in [4], 68.4 µM; in experiment [6], 60.9 µM; in experiment [7] it was 62.9 µM. Moreover, the TGI in experiment [8] stood at 52.2 µM; in [9], 79.6 µM.

Take `COc1ccc(S(=O)(=O)Nc2cc(/C=C\c3cc(OC)c(OC)c(OC)c3)ccc2OC)cc1`: the GI50 in experiment [1] was 0.159 µM; in experiment [2], 0.0587 µM; in [3], 0.0515 µM; in [4], 0.0797 µM; in [5], 0.195 µM; in [6], 0.388 µM. Moreover, the GI50 is 12.8 µM in [7], 0.053 µM in [8] and 0.0768 µM in experiment [9]. Besides, the TGI in [1] was over 100 µM; in experiment [2] it was 17.3 µM; in [3], 20.6 µM; in experiment [4], over 100 µM; in experiment [5], 0.681 µM; in experiment [6] it was over 100 µM. In addition, the TGI in experiment [7] is over 100 µM; in experiment [8], over 100 µM; in experiment [9] it was 11.5 µM.

Consider `COc1ccc(CC(=O)NCCc2ccc(OC)c(OC)c2)cc1Br`, for which the TGI in experiment [1], in [2], in experiment [3], in experiment [5], in experiment [6] and in [7] was over 100 µM in each case. Further, in experiment [9], the TGI is over 100 µM.

On to `COc1ccc(S(=O)(=O)N/N=C/c2cc(I)cc([N+](=O)[O-])c2O)cc1OC`, for which the TGI was over 100 µM in experiment [1]; over 100 µM in experiment [2]; 85.3 µM in experiment [3]; 57.5 µM in experiment [5]; 64.8 µM in [6]; 62.1 µM in experiment [7]. Moreover, the TGI is 66.3 µM in experiment [8] and over 100 µM in experiment [9].

For the compound `Cc1ccc(NC(=O)C(=O)CC(=O)c2c(C)n([O-])c3ccccc3[n+]2=O)cc1`, the TGI in experiment [1] is 87.3 µM; in experiment [2] it was over 100 µM; in [3], over 100 µM; in experiment [4] it was 37.2 µM; in experiment [5] it was 48.6 µM; in experiment [6], 52.8 µM. Further, the TGI in experiment [7] is over 100 µM; in [8], 35.1 µM; in experiment [9], over 100 µM.

For `CN(C)C=[N+]=[N-]`, the TGI in experiment [1], in [2], in experiment [3], in experiment [4], in experiment [5] and in [6] was over 100 µM in each case. Also, the TGI in [7], in [8] and in experiment [9] was over 100 µM each time.

For the compound `c1ccc2cc3[s+]snc3cc2c1`, the TGI in experiment [1], in [2], in [3], in experiment [4], in experiment [5] and in [6] was over 100 µM throughout. In addition, the TGI in experiment [7], in [8] and in [9] was over 100 µM each time.

In the case of `CCOC(=O)/C(=C\c1cccs1)P(=O)(OCC)OCC`, the TGI is 50.8 µM in [1]; 32.3 µM in experiment [2]; 35.4 µM in experiment [3]; 33.7 µM in [4]; 73.3 µM in [5]; over 100 µM in [6]. The results for the TGI in experiment [7], in experiment [8] and in experiment [9] were 43.3 µM, 41.8 µM and over 100 µM, respectively.

Take `CN1CC[C@]2(C)c3cc(O)ccc3CC3CCCC1C32C` (stereo partly drawn): the TGI in experiment [1], in experiment [2], in experiment [3], in [4], in experiment [5] and in experiment [6] was over 100 µM throughout. The TGI in experiment [7], in [8] and in experiment [9] was over 100 µM in each case.

As to `COc1ccccc1C1c2cc3c(cc2OC(O)(CO)C1C(=O)O)OCO3` (stereo not drawn) (tested in a mixture with another compound), the TGI in experiment [1], in experiment [2], in [4], in experiment [5], in experiment [6] and in [7] was over 100 µM in each case. Besides, the TGI in experiment [8] and in experiment [9] was over 100 µM in each case.

As for `C[C@]12CCC(=O)C(O)=C1CC[C@@H]1C2CC[C@]2(C)Nc3c(cnn3-c3ccccc3)CC12` (stereo partly drawn), the TGI in experiment [1] was over 100 µM; in experiment [2] it was over 100 µM; in experiment [3] it was over 100 µM; in experiment [4], over 100 µM; in [5], 62.6 µM; in experiment [6], over 100 µM. The TGI in experiment [7], in experiment [8] and in experiment [9] was over 100 µM in each case.

Consider `O=c1nc(NC(c2ccccc2)(c2ccccc2)c2ccccc2)ccn1CCNCCn1ccc(NC(c2ccccc2)(c2ccccc2)c2ccccc2)nc1=O`, for which the TGI was over 100 µM in experiment [1]; over 100 µM in experiment [2]; over 100 µM in [3]; 73 µM in experiment [4]; 34.7 µM in experiment [7]; 58.3 µM in experiment [8]. In experiment [9], the TGI is 60.6 µM.

`O=C(O)CNS(=O)(=O)c1ccc(NC(=O)CI)cc1`: the TGI was over 100 µM in [1]; over 100 µM in [2]; over 100 µM in experiment [3]; 37.5 µM in [5]; 34.5 µM in experiment [6]; over 100 µM in [7]. Further, the TGI in [8] was 62 µM; in [9] it was over 100 µM.

With `COc1cc(C(O)C(=O)c2nc3ccc([N+](=O)[O-])cc3[nH]c2=O)ccc1O` (stereo not drawn), the TGI in [1], in [2], in [3], in [4], in experiment [5] and in experiment [6] was over 100 µM each time. In addition, the TGI in [7], in [8] and in experiment [9] was over 100 µM each time.

Turning to `O=C(O)CCC(NC(=O)c1ccccc1)C(=O)O` (stereo not drawn), the TGI in [1], in experiment [2], in experiment [3], in experiment [4], in [6] and in [8] was over 100 µM throughout. In experiment [9], the TGI is over 100 µM.

Turning to `C[N+]1(C)C/C(=C\c2ccccc2)C(=O)/C(=C/c2ccccc2)C1`, the TGI in experiment [1], in experiment [2], in experiment [4], in experiment [5], in experiment [6] and in experiment [7] was over 100 µM throughout. Also, the TGI in [8] and in [9] was over 100 µM each time.

As for `Cc1[nH]c(=O)n2c(C)nnc2c1C(=O)Nc1cc(Cl)cc(Cl)c1`, the TGI is over 100 µM in experiment [1]; over 100 µM in [2]; over 100 µM in experiment [3]; over 100 µM in [4]; 47.9 µM in [5]; over 100 µM in [6]. Further, the results for the TGI in experiment [7], in experiment [8] and in experiment [9] were 68.5 µM, 40.8 µM and 52.1 µM, respectively.

As for `C=C1C(=O)OC2C=C(CCC(C)=O)C(C)C(OC(C)=O)CC12` (stereo not drawn), the TGI in [1] was 55.4 µM; in experiment [2], 19.7 µM; in experiment [3], 23.6 µM; in experiment [4], 21.2 µM; in experiment [5], 8.89 µM; in experiment [6], 34.1 µM. For the same compound, the TGI came to 32.8 µM in experiment [7], 26 µM in experiment [8] and 24.4 µM in [9].

Consider `Cc1c(C(=O)CC(=O)C(=O)Nc2ccc(Cl)cc2)[n+](=O)c2ccccc2n1[O-]`, for which the TGI in [1], in experiment [2], in [3], in experiment [4], in experiment [5] and in [6] was over 100 µM throughout. For the same compound, the TGI in [7], in experiment [8] and in experiment [9] was over 100 µM throughout.

Consider `CC(C)(CN1CCCCC1)C(=O)/C=C/c1ccc(Cl)cc1`, for which the TGI in experiment [1] turned out to be 14.4 µM; in experiment [2] it was 17.2 µM; in experiment [4] it was 13 µM; in experiment [5] it was 4.8 µM; in experiment [6], 5.11 µM; in experiment [7] it was 14.7 µM. For the same compound, the TGI in experiment [8] worked out at 11.9 µM; in experiment [9], 29.1 µM.

On to `Fc1ccccc1C1SCc2nc3ccccc3n21` (stereo not drawn), for which the TGI in experiment [1] is over 100 µM; in experiment [2] it was over 100 µM; in experiment [3], over 100 µM; in experiment [4], over 100 µM; in experiment [5] it was 44.6 µM; in [6], over 100 µM. Moreover, the TGI in experiment [7], in experiment [8] and in experiment [9] was over 100 µM throughout.

These data come from PubChem BioAssay (NCI).
